Here are results for 13 compounds from ChEMBL document CHEMBL3351493, “Beta-aminoketones as prodrugs for selective irreversible inhibitors of type-1 methionine aminopeptidases” (Bioorg Med Chem Lett, 2014).

Active and inactive are the calls of the source. The calls are words filed in the database; no cut-off is given here.

The test system of one data set is CAPAN-1. Description: Cytotoxicity against human Capan1 cells at 1.6 to 100 ug/ml after 72 hrs by crystal violet assay. The format is functional, cell-based.
Another data set deals with Ca-Ski. Description: Cytotoxicity against human CaSki cells at 1.6 to 100 ug/ml after 72 hrs by crystal violet assay. The class given is functional, cell-based.
The next data set relates to A 172. Description: Cytotoxicity against human A172 cells at 1.6 to 100 ug/ml after 72 hrs by crystal violet assay. The format is functional, cell-based.
Data set [1] in a line: Half life assessed as decomposition into amines and unsaturated ketones at 250 uM in 50 mM Tris/maleate pH 7.5 buffer by HPLC method. The class given is physicochemical. Conditions: Tris/maleate buffer, pH 7.5.
The target of data set [2] is T1, Methionine aminopeptidase (Escherichia coli K-12, UniProt P0AE18).
T1 sequence (P0AE18 whole entry): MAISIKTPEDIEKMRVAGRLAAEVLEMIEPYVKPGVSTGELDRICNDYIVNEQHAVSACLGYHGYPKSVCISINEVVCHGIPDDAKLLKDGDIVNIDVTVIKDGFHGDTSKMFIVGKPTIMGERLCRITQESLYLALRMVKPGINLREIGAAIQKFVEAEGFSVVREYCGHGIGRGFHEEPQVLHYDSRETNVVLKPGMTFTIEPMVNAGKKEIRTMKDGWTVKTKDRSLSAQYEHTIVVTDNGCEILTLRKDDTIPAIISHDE
Description: Inhibition of C-terminal poly-His-tagged Escherichia coli MetAP expressed in Escherichia coli BL21(DE3) incubated for 30 mins before MGMM substrate addition by fluorescence assay. Conditions: read-out: IC50.

The next data set deals with MeWo. Description: Cytotoxicity against human MeWo cells at 1.6 to 100 ug/ml after 72 hrs by crystal violet assay. The format is functional, cell-based.
For another data set, the system named is SW707. The experiment in a line: Cytotoxicity against human SW707 cells at 1.6 to 100 ug/ml after 72 hrs by crystal violet assay. The format is functional, cell-based.
The next data set deals with Calu-6. Description: Cytotoxicity against human Calu6 cells at 1.6 to 100 ug/ml after 72 hrs by crystal violet assay. The format is functional, cell-based.
For data set [3], the target named is Methionine aminopeptidase 2 (Homo sapiens, UniProt P50579). As to conditions: sf9.
Chain of Methionine aminopeptidase 2 (P50579 whole entry): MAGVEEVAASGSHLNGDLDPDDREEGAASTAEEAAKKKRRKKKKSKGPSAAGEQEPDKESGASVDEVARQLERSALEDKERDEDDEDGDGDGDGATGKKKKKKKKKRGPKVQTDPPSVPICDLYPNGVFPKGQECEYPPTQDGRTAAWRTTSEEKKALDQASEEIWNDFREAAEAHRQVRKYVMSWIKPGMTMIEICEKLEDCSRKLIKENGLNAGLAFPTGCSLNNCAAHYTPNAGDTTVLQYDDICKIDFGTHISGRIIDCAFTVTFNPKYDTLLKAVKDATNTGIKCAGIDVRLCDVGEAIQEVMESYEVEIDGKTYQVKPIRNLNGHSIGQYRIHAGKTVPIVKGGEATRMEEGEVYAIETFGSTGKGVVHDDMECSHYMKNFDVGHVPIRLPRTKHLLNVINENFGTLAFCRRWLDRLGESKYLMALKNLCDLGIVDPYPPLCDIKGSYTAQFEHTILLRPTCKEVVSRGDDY
Description: Inhibition of human MetAP-2 expressed in Sf9 cells incubated for 60 mins before MGMM substrate addition by fluorescence assay
The next data set relates to BT-474. The experiment in a line: Cytotoxicity against human BT474 cells at 1.6 to 100 ug/ml after 72 hrs by crystal violet assay. The class given is functional, cell-based.
A short description of data set [4]: Cytotoxicity against human Flow 2002 cells at 1.6 to 100 ug/ml after 72 hrs by crystal violet assay. The format is cell-based. As to conditions: flow 2002, 72 h.
The subject of a further data set is Escherichia coli. Description: Antimicrobial activity against Escherichia coli BL21(DE3) assessed as inhibition of bacterial growth at 200 uM incubated at 37 degC for 7 hrs. The format is functional. Conditions: BL21-DE3, 7 h.
The test system of a further data set is A-431. The experiment in a line: Cytotoxicity against human A431 cells at 1.6 to 100 ug/ml after 72 hrs by crystal violet assay. The class given is functional, cell-based.
A further data set has as its system HaCaT. The experiment in a line: Cytotoxicity against human HaCaT cells at 1.6 to 100 ug/ml after 72 hrs by crystal violet assay. The class given is cell-based.
Data set [5] concerns the target Methionine aminopeptidase (Staphylococcus aureus (strain COL), UniProt Q5HEN6). Description: Inhibition of N-terminal poly-His-tagged Staphylococcus aureus COL MetAP expressed in Escherichia coli BL21(DE3) incubated for 30 mins before MGMM substrate addition by fluorescence assay. As to conditions: read-out: IC50. Further details: species or system Staphylococcus aureus subsp. aureus COL.

Chain of Methionine aminopeptidase (Staphylococcus aureus (strain COL), UniProt Q5HEN6) (Q5HEN6 whole entry): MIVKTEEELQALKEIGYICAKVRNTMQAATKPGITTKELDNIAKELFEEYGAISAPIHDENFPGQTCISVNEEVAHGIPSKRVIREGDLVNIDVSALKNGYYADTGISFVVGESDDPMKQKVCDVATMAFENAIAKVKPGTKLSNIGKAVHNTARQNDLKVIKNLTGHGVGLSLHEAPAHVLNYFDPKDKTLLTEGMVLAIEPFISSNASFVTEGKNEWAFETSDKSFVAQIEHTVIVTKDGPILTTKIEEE

For orientation: half-life means the time in which the quantity being followed falls by half. For orientation: IC50 means the concentration that gives 50% inhibition. A word on the inhibition: it is the share of the control response that was lost under treatment. As for `COc1ccc2c(c1)C(=O)C(CN(C)C)C2.Cl` (stereo unspecified), the result in the data set with CAPAN-1, with Ca-Ski, in the data set on A 172, in the data set with MeWo, in the data set on SW707 and in the data set on Calu-6 was Active. In addition, the result with BT-474 and with A-431 was Active. For the same compound, the half-life at 250 µM in [1] stood at 12 min. The IC50 in data set [2] was 0.83 µM; in [3], “Not Active”; in data set [5] it was 17 µM. Also, the Activity result (in data set [4]; with HaCaT) was “Toxic” in each case. The inhibition at 200 µM in the data set on Escherichia coli was determined as 19%.
With `CN(C)CC1Cc2cc(Br)ccc2C1=O.Cl` (stereo unspecified), the result in the data set on CAPAN-1, in the data set on Ca-Ski, in the data set on A 172, in the data set with MeWo, in the data set on SW707 and in the data set with Calu-6 was Active. Moreover, the outcome in the data set with BT-474 and in the data set on A-431 was Active. Further, the half-life at 250 µM in data set [1] worked out at 6 min. For the same compound, the IC50 was 0.72 µM in data set [2], “Not Active” in [3] and 7.8 µM in data set [5]. The Activity result (in data set [4]; in the data set on HaCaT) was “Toxic” each time. Further, the inhibition at 200 µM with Escherichia coli came out at 57%.
On to `CN(C)CC1Cc2c(cccc2C(F)(F)F)C1=O.Cl` (stereo unspecified), for which the result with CAPAN-1, in the data set with Ca-Ski, in the data set with A 172, with MeWo, in the data set on SW707 and with Calu-6 was Active. In addition, the outcome in the data set with BT-474 and in the data set on A-431 was Active. Besides, the half-life at 250 µM in data set [1] amounted to 1730 min. Moreover, the IC50 in [2] was 7 µM; in data set [3], “Not Active”; in [5], 46 µM. In addition, the Activity result (in data set [4]; in the data set with HaCaT) was “Toxic” each time. Moreover, the inhibition at 200 µM in the data set with Escherichia coli was 22%.
Regarding `Cc1ccc2c(c1)CC(CN(C)C)C2=O.Cl` (stereo unspecified), the outcome with CAPAN-1, in the data set on Ca-Ski, with A 172, in the data set on MeWo, in the data set on SW707 and with Calu-6 was Active. Further, the result in the data set with BT-474 and in the data set with A-431 was Active. Besides, the half-life at 250 µM in data set [1] is 24 min. The IC50 in data set [2] is 1.1 µM; in [3], “Not Active”; in [5], 32 µM. Moreover, the Activity result (in data set [4]; in the data set on HaCaT) was “Toxic” throughout. Also, in the data set with Escherichia coli, the inhibition at 200 µM was 100%.
As to `C=C1Cc2cc(Br)ccc2C1=O`, the outcome in the data set with CAPAN-1, with Ca-Ski, with A 172, with MeWo, in the data set with SW707 and in the data set with Calu-6 was Active. In addition, the outcome in the data set with BT-474 and in the data set on A-431 was Active. Further, the IC50 in data set [2] is 0.19 µM; in [3], “Not Active”. For the same compound, the Activity result (in data set [4]; with HaCaT) was “Toxic” in each case. Besides, the inhibition at 200 µM with Escherichia coli stood at 21%.
As to `C=C1Cc2cc(C)ccc2C1=O`, the result with CAPAN-1, with Ca-Ski, in the data set with A 172, with MeWo, with SW707 and in the data set on Calu-6 was Active. Besides, the outcome with BT-474 and with A-431 was Active. Also, the IC50 in data set [2] is 0.4 µM; in [3], “Not Active”; in data set [5], 13.3 µM. Also, the Activity result (in [4]; in the data set with HaCaT) was “Toxic” in each case. Besides, in the data set on Escherichia coli, the inhibition at 200 µM worked out at 100%.
For the compound `C=C1Cc2cc(OC)ccc2C1=O`, the result in the data set with CAPAN-1, with Ca-Ski, in the data set on A 172, in the data set with MeWo, in the data set on SW707 and with Calu-6 was Active. The outcome in the data set with BT-474 and with A-431 was Active. Besides, the IC50 in data set [2] is 0.98 µM; in data set [3], “Not Active”. The Activity entry (in data set [4]; in the data set on HaCaT) was “Toxic” each time.
For `CN(C)CC1Cc2cc(Cl)ccc2C1=O.Cl` (stereo unspecified), the outcome with CAPAN-1, in the data set with Ca-Ski, in the data set on A 172, with MeWo, in the data set on SW707 and in the data set on Calu-6 was Active. Also, the outcome with BT-474 and with A-431 was Active. For the same compound, the half-life at 250 µM in [1] worked out at 7 min. Besides, the IC50 in [2] is 0.84 µM; in data set [3], “Not Active”; in data set [5] it was 7 µM. Besides, the Activity entry (in data set [4]; in the data set on HaCaT) was “Toxic” each time. Moreover, the inhibition at 200 µM in the data set with Escherichia coli came to 71%.
As for `C=C1Cc2cc(Cl)ccc2C1=O`, the result in the data set on CAPAN-1, in the data set on Ca-Ski, in the data set with A 172, with MeWo, in the data set on SW707 and with Calu-6 was Active. Moreover, the outcome in the data set on BT-474 and with A-431 was Active. In addition, the IC50 was 0.23 µM in data set [2] and “Not Active” in data set [3]. In addition, the Activity result (in [4]; in the data set on HaCaT) was “Toxic” in each case. In the data set on Escherichia coli, the inhibition at 200 µM stood at 27%.
In the case of `CN(C)CC1Cc2ccccc2C1=O.Cl` (stereo unspecified), the outcome with CAPAN-1, with Ca-Ski, in the data set on A 172, in the data set on MeWo, with SW707 and with Calu-6 was Active. The outcome in the data set on BT-474 and in the data set on A-431 was Active. Besides, the half-life at 250 µM in data set [1] was found to be 10 min. Also, the IC50 in data set [2] was 2.8 µM; in data set [3], “Not Active”; in [5], 26 µM. Also, the Activity entry (in data set [4]; with HaCaT) was “Toxic” in each case. Further, the inhibition at 200 µM in the data set with Escherichia coli amounted to 90%.
For the compound `C=C1Cc2ccc(OC)cc2C1=O`, the outcome in the data set on CAPAN-1, with Ca-Ski, in the data set on A 172, in the data set with MeWo, in the data set with SW707 and in the data set on Calu-6 was Active. For the same compound, the outcome in the data set on BT-474 and with A-431 was Active. Besides, the IC50 in [2] was 0.67 µM; in [3], “Not Active”. Further, the Activity result (in data set [4]; in the data set on HaCaT) was “Toxic” each time.
`C=C1Cc2ccc(C)cc2C1=O`: the result with CAPAN-1, with Ca-Ski, in the data set on A 172, in the data set with MeWo, with SW707 and in the data set on Calu-6 was Active. Besides, the result with BT-474 and in the data set with A-431 was Active. Besides, the IC50 in data set [2] is 0.8 µM; in data set [3], “Not Active”. Moreover, the Activity entry (in [4]; in the data set with HaCaT) was “Toxic” throughout.
With `COc1ccc2c(c1)CC(CN(C)C)C2=O.Cl` (stereo unspecified), the result in the data set on CAPAN-1, in the data set on Ca-Ski, in the data set on A 172, in the data set with MeWo, in the data set with SW707 and with Calu-6 was Active. Besides, the outcome in the data set on BT-474 and with A-431 was Active. Moreover, in data set [1], the half-life at 250 µM stood at 45 min. In addition, the results for the half-inhibitory concentration (IC50) in data set [2], in [3] and in data set [5] were 2 µM, “Not Active” and 42.1 µM, respectively. In addition, the Activity result (in [4]; in the data set on HaCaT) was “Toxic” each time. In the data set on Escherichia coli, the inhibition at 200 µM stood at 35%.
